Target: T1, aldose reductase (Bos taurus, UniProt P16116)
T1 construct: partially purified aldose reductase is isolated in known manner from bovine lenses; from tissue; host or cells: bovine lenses
Test: in vitro inhibition of partially purified aldose reductase isolated from bovine lenses (reduction of glucose to sorbitol, spectrophotometric)
Assay type: biochemical
Details: in vitro test
From the text: Thus, in a standard procedure partially purified aldose reductase is isolated in known manner from bovine lenses. The percentage inhibition of this enzyme's ability in vitro to catalyse the reduction of aldoses to polyhydric alcohols, and particularly to reduce glucose to sorbitol, caused by a test compound can then be determined using standard spectrophotometric methods.

Compound `Cc1c(C)c(S(=O)(=O)C[N+](=O)[O-])c(C)c2c1OC(C)(C)CC2` [Example 2, 2,2,5,7,8-pentamethyl-6-(nitromethylsulphonyl)-chroman] has an IC50 of 13 nM.
